What was measured:
[1] = tested on: Met mutant Drosophila flies; conditions: cited from earlier work; for resistance to topical application: Met gene mutation
[2] = tested on: JH cytosolic binding protein; conditions: cited from earlier work
[3] = tested on: Met^3 flies transformed with genomic fragments; assay: Methoprene resistance test of progeny of Met^3 transformants (rescue of Met phenotype); format: in vivo, Drosophila; conditions: three diagnostic amounts of methoprene
Description: P-element mediated germline transformation was carried out with DNA fragments isolated from phage clones derived from a wild-type genomic library. Genomic fragments were isolated following restriction enzyme digestions of phage obtained from the iso-i strain genomic library. (Tamkun et al. Proc. Natl. Acad. Sci. USA 81:5140 (1984)). Fragments were either subcloned into Bluescript (Stratagene Co., Ca.), then excised with an EcoRI-NotI double digest and subcloned into the pCaSpeR 4 transformation vector (Thummel et al. Drosophila Inform. Serv. 71:150 (1992)), or were subcloned directly into the pCaSpeR 4 vector. Purified plasmids together with pp25.1wc transformation “helper” DNA in a ratio of 2-3:1 were injected into dechorionated ywMet^3 embryos as described. (A. Spradling in Drosophila—A Practical Approach (D. B. Roberts, Ed. IRL, Oxford, 1986, page 175). Go progeny were individually crossed with y w Met^3, and transformants recognized by restoration of eye color ranging from light orange to red. For each DNA fragment, 3-5 transformants from separate Go females were recovered and their progeny tested for methoprene resistance.
Progeny of transformants were tested on three diagnostic amounts of methoprene as described in Wilson, Arch. Insect Biochem. Physiol. 32:641 (1996)). […]

Drosophila = conditions: JH analog insecticide; cited from earlier work
GAL4-AhR construct = conditions: yeast cells; construct constitutively active without ligand; cited from earlier work
[4] = tested on: DNA BD of the glucocorticoid receptor fused to the AhR; conditions: CHO mammalian cells; cited from earlier work

SMILES: CC(COc1ccc(Oc2ccccc2)cc1)Oc1ccccn1 (stereo not shown) [pyriproxyfen]
- resistance to topical application [1]: resistance

SMILES: CCOC(=O)NCCOc1ccc(Oc2ccccc2)cc1 [fenoxycarb]
- resistance to topical application [1]: resistance

SMILES: COC(=O)/C=C(\C)CC[C@@H]1O[C@@]1(C)CC[C@H]1OC1(C)C [JH bisepoxide]
- resistance to topical application [1]: resistance

SMILES: COC(=O)/C=C(\C)CC/C=C(\C)CC[C@H]1OC1(C)C [JH III, [R-(E,E)]-9-(3,3-dimethyloxiranyl)-3,7-dimethyl-2,6-nonadienoic acid methyl ester]
- binding to cytosolic juvenile hormone-binding protein ([2]; Drosophila melanogaster cytosolic protein): saturable, high-affinity binding
- lower binding affinity of JH cytosolic binding protein from Met flies than from Met+ flies ([2]; Met flies versus Met+ flies): 10 fold
- resistance to topical application [1]: resistance

SMILES: COC(C)(C)CCC[C@H](C)C/C=C/C(C)=C/C(=O)OC(C)C [methoprene, [E,E]-1-methoxy-3,7,11-trimethyl-2,4-dodecadienoic acid 1-methylethyl ester]
- level of methoprene resistance compared with Met^3 ([3]; Met^3 transformants with fragments St-X and K-H): undiminished
- methoprene resistance after transformation ([3]; Met^3 transformed with the 6.234 Kb St-H fragment): resistance was lost
- toxicity to Drosophila (Drosophila): high toxicity
- resistance to both the toxic and morphogenetic effects ([1]; Met mutant versus wild-type flies): ≤ 100 fold
- resistance to both the toxic and morphogenetic effects conferred by Met^A3 and Met^K17 alleles ([1]; P-element alleles Met^A3 and Met^K17): conferred resistance

SMILES: Clc1cc2c(cc1Cl)Oc1cc(Cl)c(Cl)cc1O2 [dioxin]
- transactivation of LacZ reporter gene by GAL4-AhR construct (GAL4-AhR construct): enhanced transactivation
- expression of reporter gene linked to a glucocorticoid response element [4]: induced expression of a reporter gene

Source: US6887661B1, “Recombinant bHLH-PAS/JHR polypeptide and its use to screen potential insecticides” (American Cyanamid Company, priority 1997, dated 2005)
